No end group written: not given here.
Tests used:
RAW 264.7 macrophages = test: NO production of stimulated macrophages (Griess reaction); format: cell-based, mouse; details: for NO-release of LPS-stimulated macrophages: E. coli or P. aeruginosa LPS, 10 ng/ml; for NO production: stimulated with E. coli LPS, LTA, PGN, zymosan A
Description: (§1) 3.5×10^5 cells were seeded in 96-well tissue culture plates (Nunc, 167008) in phenol red-free DMEM (Gibco) supplemented with 10% FBS and antibiotics. Following 6 hours of incubation to permit adherence, cells were stimulated with 10 ng/mL E. coli (0111:84) LPS (Sigma), lipoteichoic acid, peptioglycan, or zymosan, with and without peptides at the indicated doses (see figure legends and figures). The levels of NO in culture supernatants were determined after 24 hours from stimulation using the Griess reaction. Briefly, nitrite, a stable product of NO degradation, was measured by mixing 50 μl of culture supernatants with the same volume of Griess reagent (Sigma, G4410) and reading absorbance at 550 nm after 15 min. Phenol-red free DMEM with FBS and antibiotics were used as a blank. A standard curve was prepared using 0-80 μM sodium nitrite solutions in ddH20.
as §1, with “coli” for “coli (0111:84)”, “(0111:B4)” for “(Sigma), lipoteichoic acid, peptioglycan, or zymosan,”, “peptide of various doses.” for “peptides at the indicated doses (see figure legends and figures).”, “reaction (Pollock, Forstermann et al. 1991).” for “reaction.”

[1] = tested on: Escherichia coli, Pseudomonas aeruginosa, Bacillus subtilis, Staphylococcus aureus, Candida albicans, Candida parapsilosis; test: Radial diffusion assay (RDA); format: cell-based; details: peptide at 100 μM; compared with LL-37
Description: Essentially as described earlier, bacteria were grown to mid-logarithmic phase in 10 ml of full-strength (3% w/v) trypticase soy broth (TSB) (Becton-Dickinson). The microorganisms were then washed once with 10 mM Tris, pH 7.4. Subsequently, 4×10^6 cfu were added to 15 ml of the underlay agarose gel, consisting of 0.03% (w/v) TSB, 1% (w/v) low electroendosmosis type (EEO) agarose (Sigma-Aldrich) and 0.02% (v/v) Tween 20 (Sigma-Aldrich). The underlay was poured into a Ø 144 mm petri dish. After agarose solidification, 4 mm-diameter wells were punched and 6 μl peptide solution of required concentration added to each well. Plates were incubated at 37° C. for 3 h to allow peptide diffusion. The underlay gel was then covered with 15 ml of molten overlay (6% TSB and 1% Low-EEO agarose in distilled H2O). Antimicrobial activity of a peptide was visualized as a zone of clearing around each well after 18-24 h of incubation at 37° C.
Essentially as described earlier (Lehrer, Rosenman et al. 1991; Andersson, Rydengård et al. 2004), bacteria were grown to mid-logarithmic phase in 10 ml of full-strength (3% w/v) trypticase soy broth. (TSB) (Becton-Dickinson). The microorganisms were then washed once with 10 mM Tris, pH 7.4. Subsequently, 4×10^6 cfu were added to 15 ml of the underlay agarose gel, consisting of 0.03% (w/v) TSB, 1% (w/v) low electroendosmosis type (EEO) agarose (Sigma-Aldrich) and 0.02% (v/v) Tween 20 (Sigma-Aldrich). The underlay was poured into a Ø 144 mm petri dish. After agarose solidification, 4 mm-diameter wells were punched and 6 μl peptide solution of required concentration added to each well. Plates were incubated at 37° C. for 3 h to allow peptide diffusion. The underlay gel was then covered with 15 ml of molten overlay (6% TSB and 1% Low-EEO agarose in distilled H2O). Antimicrobial activity of a peptide was visualized as a zone of clearing around each well after 18-24 h of incubation at 37° C. […]

[2] = tested on: intrinsic pathway of coagulation; test: Activated partial thromboplastin time (aPTT); details: normal human plasma
Description: All clotting times were measured using an Amelung coagulometer. Activated partial thromboplastin time (aPTT) was measured by incubating the peptides diluted in sterile water at the indicated concentrations, with 100 μL citrated human plasma for 1 minute followed by the addition of 100 μL aPTT reagent (aPTT Automate, Diagnostica Stago) for 60 seconds at 37° C. Clotting was initiated by the addition of 100 μL of a 25-mM CaCl2 solution. In the prothombrin time assay (PT), clotting was initiated by the addition of 100 μL Thrombomax with calcium (PT reagent; Sigma-Aldrich). For measuring the thrombin clotting time (TCT), clotting was initiated by the addition of 100 μL Accuclot thrombin time reagent (TCT reagent; Sigma-Aldrich).
All clotting times were analyzed using a coagulometer (Amelung, Lemgo, Germany). The prothrombin time (PT) and the Thrombin clotting time (TCT) were measured as followed: Hundred microliter of fresh human citrate plasma together with indicated concentrations of NLF20 were pre-warmed for 60 sec at 37° C. before clot formation was initiated by adding 100 μl a clotting reagent. (PT-thromboplastin reagent (Trinity Biotech), TCT: Thrombin reagent (Technoclone)). To record the activated partial thromboplastin time (aPTT), 100 μl of a kaolin-containing solution (Technoclone) was add to the plasma-peptide mix and incubated for 200 sec before clot formation was initiated by adding 100 μl of 30 mM fresh CaCl2 solution.

Row | Sequence | NO-release of LPS-stimulated macrophages (RAW 264.7 macrophages) | NO production (RAW 264.7 macrophages) | Antimicrobial activity in RDA (zones of clearance) [1] | Activated partial thromboplastin time (aPTT) [2] | Concentration eliminating LPS-induced NO-responses (RAW 264.7 macrophages; 10 ng/ml E. coli or P. aeruginosa LPS) [µM]
1 | KYEITTIHNLFRKLTHRLFRR [KYE21] | significantly inhibited NO-release | blocks NO production | activities were similar to those observed for | only minor blocking of the aPTT | 
2 | KYEITTIHNLFRKLTHRLFRRNFGYTLR [KYE28] | significantly inhibited NO-release | blocks NO production | activities were similar to those observed for | impair the intrinsic pathway of coagulation | 
3 | NLFRKLTHRLFRRNFGYTLR [NLF20] |  | blocks NO production | well exceeded those observed for | impaired the intrinsic pathway of coagulation | 20 to 40
